Measured values published in US20130267680A1, “TOTAL CHEMICAL SYNTHESIS OF UBIQUITIN, UBIQUITIN MUTANTS AND DERIVATIVES THEREOF” (Stichting Het Nederlands kankerinstituut, priority 2010, published 2013).

What was measured:
HAUSP/USP7 [1] = assay: Ub-AMC/Ub-Rh110-Gly DUB assay with HAUSP/USP7; type: biochemical; settings: 1 nM enzyme
Method: (§1) FIG. 5: Hydrolysis of fluorogenic Ub derivatives by the deubiquitinating enzymes HAUSP/USP7 and UCH-L3. All assays contained 1 nM of enzyme, substrate concentration was varied.
Assay 1: Commercial and synthetic Ub-AMC, prepared according to the present method are treated side by side with HAUSP/USP7 and compared.
(§2) Assay 3: Ub-Rh110-Gly was treated with HAUSP/USP7 and UCH-L3.
Usp7(206-1102) was expressed in E. coli from a synthetic construct and purified as described: (a) Shanmugham et al. J. Am. Chem. Soc. 2010, 132, 8834-8835; (b) Fernandez-Montalvan et al. Febs J. 2007, 274, […].
(§3) assay buffer: 50 mM HEPES pH 7.5 • 100 mM NaCl • 1 mM EDTA • 0.05% Tween20 • 10 mM DTT • Reaction mixtures were incubated for 30 min at 25° C., measured every 5 minutes • 30 μL reactions • Proteins used: Ub-AMC (Commercial) • Ub-AMC (Synthetic) • Ub-Rh110-Gly (Synthetic) • USP7 full length • UCH-L3 All assays contained 1 nM DUB and the following concentrations of Ub:
DUB activity on commercial (Sigma) and synthetic ubiquitin with a C-terminal fluorescent group, 7-amino-4-methylcoumarin (Ub-AMC) were performed at 25° C. in buffer containing 50 mM Hepes pH 7.5, 100 mM NaCl, 1 mM EDTA, 0.05% (w/v) Tween20, 10 mM DTT. The concentrations Ubiquitin-AMC and DUB are specified in the figures. Assays were performed in “Non binding surface flat bottom low flange” black 384-well plates (Corning) in 30 μl reactions. Kinetic data was collected in intervals of 5 min using a Fluostar Optima fluorescence plate reader (BMG Labtechnologies) at excitation and emission wavelengths of 355 nm and 460 nm, respectively for Ub-AMC. Experimental data was processed using Prism 4.03 (GraphPad Software, Inc.).
Target sequence in this assay (Q93009 whole entry): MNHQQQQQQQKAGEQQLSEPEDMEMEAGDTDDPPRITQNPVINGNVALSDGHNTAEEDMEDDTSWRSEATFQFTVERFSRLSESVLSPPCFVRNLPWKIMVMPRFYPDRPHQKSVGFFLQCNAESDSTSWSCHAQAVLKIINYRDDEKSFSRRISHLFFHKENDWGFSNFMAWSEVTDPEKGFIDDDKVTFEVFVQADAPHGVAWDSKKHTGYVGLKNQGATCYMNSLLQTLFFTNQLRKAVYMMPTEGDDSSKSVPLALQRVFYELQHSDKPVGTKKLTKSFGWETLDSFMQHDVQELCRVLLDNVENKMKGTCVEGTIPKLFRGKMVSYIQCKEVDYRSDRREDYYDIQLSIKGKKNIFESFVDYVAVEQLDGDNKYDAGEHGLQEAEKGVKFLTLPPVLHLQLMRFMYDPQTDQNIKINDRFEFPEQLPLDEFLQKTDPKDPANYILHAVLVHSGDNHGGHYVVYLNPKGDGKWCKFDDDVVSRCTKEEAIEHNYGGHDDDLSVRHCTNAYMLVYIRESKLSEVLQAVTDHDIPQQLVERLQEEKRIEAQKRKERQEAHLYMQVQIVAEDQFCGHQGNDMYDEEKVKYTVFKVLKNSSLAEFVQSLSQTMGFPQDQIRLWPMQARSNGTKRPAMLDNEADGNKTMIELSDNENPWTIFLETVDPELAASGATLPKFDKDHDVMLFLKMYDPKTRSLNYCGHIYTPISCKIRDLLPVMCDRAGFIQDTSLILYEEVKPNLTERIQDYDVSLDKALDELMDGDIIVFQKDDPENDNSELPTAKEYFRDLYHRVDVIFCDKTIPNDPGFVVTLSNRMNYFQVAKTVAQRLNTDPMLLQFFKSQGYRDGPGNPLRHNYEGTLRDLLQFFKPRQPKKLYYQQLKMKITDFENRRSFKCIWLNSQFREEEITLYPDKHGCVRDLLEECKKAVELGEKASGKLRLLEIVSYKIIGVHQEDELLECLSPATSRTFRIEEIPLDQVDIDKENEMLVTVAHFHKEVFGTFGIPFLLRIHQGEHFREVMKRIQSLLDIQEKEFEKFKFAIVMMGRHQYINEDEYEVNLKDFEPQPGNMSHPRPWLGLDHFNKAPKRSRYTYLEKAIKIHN

UCH-L3 = molecular target: T1, UCH-L3 (Homo sapiens, UniProt P15374); assay: Ub-AMC/Ub-Rh110-Gly DUB assay with UCH-L3; type: biochemical; settings: 1 nM enzyme, substrate 0.06-15 μM, 25° C., 30 min
T1 construct: made in house; host or cells: Escherichia coli
T1 sequence (P15374 1-230): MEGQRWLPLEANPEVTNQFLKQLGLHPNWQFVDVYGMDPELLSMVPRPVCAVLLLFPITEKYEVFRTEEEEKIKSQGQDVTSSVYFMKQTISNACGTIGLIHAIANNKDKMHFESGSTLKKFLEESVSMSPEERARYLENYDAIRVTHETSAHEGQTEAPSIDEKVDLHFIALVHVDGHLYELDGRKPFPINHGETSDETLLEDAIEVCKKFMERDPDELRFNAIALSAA
Method: as §1
Assay 2. Synthetic Ub-AMC was treated with UCH-L3.
as §2
UCH-L3 in pRSET vector was obtained from Dr. Keith Wilkinson. UCH-L3 was expressed in Escherichia coli and purified as described in: C. N. Larsen, J. S. Price, K. D. Wilkinson, K. D. Biochemistry 1996, 35, 6735-6744.
as §3
DUB activity on commercial (Sigma) and synthetic ubiquitin with a C-terminal fluorescent group, 7-amino-4-methylcoumarin (Ub-AMC) were performed at 25° C. in buffer containing 50 mM Hepes pH 7.5, 100 mM NaCl, 1 mM EDTA, 0.05% (w/v) Tween20, 10 mM DTT. The concentrations Ubiquitin-AMC and DUB are specified in the figures. […] Kinetic data was collected in intervals of 5 min using a Fluostar Optima fluorescence plate reader (BMG Labtechnologies) at excitation and emission wavelengths of 355 nm and 460 nm, respectively for Ub-AMC. […]

HAUSP/USP7 [2] = assay: Binding of HAUSP/USP7 to ubiquitin-VME; settings: Ub-VME 2 μM, USP7 1 μM, 60 min at 30° C.
Method: Both Ub derivatives are routinely used to measure activity of deubiquitinating enzymes (DUBs). […] The structural integrity of synthetic UbAMC and UBRh110Gly, both prepared in accordance with the method of the present invention, was tested using the following assays.
Binding of HAUSP/USP7 to ubiquitin-VME Assay buffer: 20 mM HEPES pH7.5 • 150 mM NaCl • 2 μM ZnCl2 • 10 mM MgCl2 • 2 mM DTT
Reaction mixtures were incubated for 60 min at 30° C.
Load 10 μL on gel (complete sample)
Target sequence in this assay (Q93009 206-1102): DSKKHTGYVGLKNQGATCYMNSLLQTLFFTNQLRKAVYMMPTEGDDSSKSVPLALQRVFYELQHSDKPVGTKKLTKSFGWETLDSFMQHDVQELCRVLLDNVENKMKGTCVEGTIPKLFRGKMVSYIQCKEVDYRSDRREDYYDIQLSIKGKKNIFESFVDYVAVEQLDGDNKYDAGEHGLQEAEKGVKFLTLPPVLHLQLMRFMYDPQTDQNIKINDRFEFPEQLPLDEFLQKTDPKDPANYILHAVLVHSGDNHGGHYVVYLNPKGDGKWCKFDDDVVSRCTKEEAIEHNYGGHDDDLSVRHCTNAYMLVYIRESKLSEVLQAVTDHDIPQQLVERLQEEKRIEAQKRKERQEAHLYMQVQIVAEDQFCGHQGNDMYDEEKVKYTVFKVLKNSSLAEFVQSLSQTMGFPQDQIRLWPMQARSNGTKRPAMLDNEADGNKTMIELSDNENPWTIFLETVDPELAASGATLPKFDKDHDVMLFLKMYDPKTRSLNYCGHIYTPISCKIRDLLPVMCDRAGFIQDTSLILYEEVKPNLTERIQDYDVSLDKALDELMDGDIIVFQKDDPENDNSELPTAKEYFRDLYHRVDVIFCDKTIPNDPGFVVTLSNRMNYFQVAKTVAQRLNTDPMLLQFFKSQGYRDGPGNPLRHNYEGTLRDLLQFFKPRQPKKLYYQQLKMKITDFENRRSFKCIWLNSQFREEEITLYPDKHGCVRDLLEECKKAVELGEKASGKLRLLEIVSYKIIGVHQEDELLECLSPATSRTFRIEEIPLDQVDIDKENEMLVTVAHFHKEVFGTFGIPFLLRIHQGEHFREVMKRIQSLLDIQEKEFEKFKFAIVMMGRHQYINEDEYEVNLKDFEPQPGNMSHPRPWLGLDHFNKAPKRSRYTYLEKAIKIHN

Row | Substance | hydrolysis / turnover by HAUSP/USP7 (recognition as substrate) (HAUSP/USP7 [1]; substrate 0.06-15 μM, 25° C., 30 min) | Michaelis-Menten kinetics comparison with USP7 (HAUSP/USP7 [1]; substrate concentration varied, commercial versus synthetic UbAMC (FIG. 5C)) | Km values with HAUSP/USP7 (HAUSP/USP7 [1]; substrate concentration varied, synthetic versus commercial UbAMC) | hydrolysis / turnover by UCH-L3 (recognition as substrate) (UCH-L3) | hydrolysis / turnover by UCH-L3 (recognition as substrate) (UCH-L3; listed as synthetic Ub-AMC) | reaction of active-site targeted probe with HAUSP/USP7 (HAUSP/USP7 [2])
1 | synthetic UbAMC: synthetic ubiquitin with a C-terminal fluorescent group, 7-amino-4-methylcoumarin; fluorogenic assay reagent | efficient turnover | identical kinetics | comparable Km values | efficient turnover | hydrolyzed and thus recognized as a substrate | –
2 | UbVME: active site directed probe Ub vinylmethyl ester which covalently modifies DUBs | – | – | – | – | – | reacted swiftly as expected
